The test system of assay [1] is Human newborn dermal fibroblasts (NB1RBG). Briefly: Inhibitory activity on the extracellular matrices production of fibroblasts with TGF-β, collagen staining method (anti-human type I collagen antibody; type I collagen sedimentation). Format: cell-based. The conditions noted are these: Fibroblast, 120 h. The source says:
Test samples used were Intin-koo extract (Preparation example 1), Forsythia suspensa VAHL. extract (Preparation example 2), Sophora flavescens AITON. extract (Preparation example 3), Rheum palmatum L. extract (Preparation example 4), Glycyrrhiza alabra L. var. glandulifera Regel et Herder extract (Preparation example 5), Goboosi extract with water (Preparation example 6), Goboosi extract with ethanol (Preparation example 7), zhimu extract (Preparation example 8), Dokkatu extract (Preparation example 9), mutong extract (Preparation example 10), soozyutu extract (Preparation example 11), o-phenanthroline (produced by Dojin Chemical Co.: special grade chemical), 2,2'-dipyridyl (produced by Aldrich Chemical Co.) and malotilate (extracted from Kantec tablet produced by Daiichi Pharmaceutical Co.).
(§1) Human newborn dermal fibroblasts (NB1RBG) (obtained from the Institute of Physical and Chemical Research) was subcultured in DMEM medium containing 10 % fetal bovine serum for provision to the test.
(§2) 2×10^4 NB1RBG cells per well were incubated in flat-bottomed 96-well microtiter plates containing 100 μl/well of each of DMEM media each containing 1 % fetal bovine serum and containing one of the test samples and TGF-β (5 ng/ml), at 37° C.-5 % CO2 for 5 days. A group not containing any test sample or TGF-β was also prepared, and incubation thereof was carried out at the same time with the test groups. After the completion of the incubation, the flat-bottomed 96-well microtiter plates on which the adhered cells and the extracellular matrices were adhered were stained with the following two methods for evaluation, respectively.
(b) Staining with anti-collagen antibody
First, the culture supernatants were removed, the wells were washed with phosphate-buffered physiological saline, and fixation was carried out with methanol under ice cooling for 10 minutes. Then, blocking was made with milk protein solution, Block Ace (produced by DAINIPPON PHARMACEUTICAL CO.), and rabbit anti-human type I collagen antibody (produced by CHEMICON CO.), biotin-labeled anti-rabbit immunoglobulin (produced by Amersham CO.) and avidin-biotin-labeled peroxidase complex (produced by Amersham CO.) were successively reacted to enzyme-label the sedimented type I collagen. 100 μl/well of 0.1 M citric acid phosphate buffer (pH 4.0) containing 2.5 mM 2,2'-azino-bis(3-ethylbenzothia-zoline-6-sulfate) (produced by SIGMA CO.) and 0.015 % H2 O2 was reacted therewith, and one hour later, absorbance at O.D. 415 was measured by a plate reader. The inhibition percetages of the type I collagen sedimentation in an unstimulating state and in a TGF-β-stimulating state were calculated according to the following equations.
The inhibition percentage of the production of extracellular matrices in an unstimulating state (%) [formula] The inhibition percentage of the production of extracellular matrices in TGF-β-stimulating state (%) [formula] E: The absorbance of a group containing only the solvent with which the test sample was prepared, and not containing TGF-β.
F: The absorbance of a group containing a test sample, but not containing TGF-β.
G: The absorbance of a group containing the solvent with which the test sample was prepared, and TGF-β.
H: The absorbance of a group containing a test sample and TGF-β.

Assay [2] has the same test system. Briefly: Inhibitory activity on the extracellular matrices production of fibroblasts with TGF-β, dye (Crystal Violet) staining method. Format: cell-based. The conditions noted are these: Fibroblast, 120 h. As for the experimental part:
as §1, §2
First, the culture supernatants were removed, the wells were washed with phosphate-buffered physiological saline, 100 μl/well of 0.05 % Crystal Violet-20 % ethanol staining solution was added, and the mixtures were left alone at room temperature for 10 minutes. Then, the plates were washed with flowing water and air dried, the remaining Crystal Violet was dissolved with 100 μl/well of methanol, and the absorbance at O.D. 570-690 was measured by a plate reader. The inhibition percentages of the production of extracellular matrices in an unstimulating state and in a TGF-β-stimulating state were calculated according to the following equations.
The inhibition percentage of the production of extracellular matrices in an unstimulating state (%) [formula] The inhibition percentage of the production of extracellular matrices in a TGF-β-stimulating state (%) [formula] A: The absorbance of a group containing only the solvent with which the test sample was prepared, and not containing TGF-β.
B: The absorbance of a group containing a test sample, but not containing TGF-β.
C: The absorbance of a group containing the solvent with which the test sample was prepared, and TGF-β.
D: The absorbance of a group containing a test sample and TGF-β.

Assay [3] relates to dermal fibrosis induced with bleomycin. Briefly: Inhibitory activity on the production of collagen in dermal fibrosis model induced with bleomycin. It is filed as in vivo, Hos:hr-1 male hairless mice. The conditions noted are these: bleomycin 10 mg/kg/day i.p. 10 days, day 30. Here is the method:
Hos:hr-1 male hairless mice (5 weeks old) were used.
10 mg/kg/day portions of bleomycin were intraperitoneally administered to the hairless mice for 10 successive days. 0.1 ml Portions of ethanol solutions or Vaseline ointments of the Sophora flavescens AITON. extraction, the Rheum palmatum L. extract, o-phenanthroline and malotilate were applied onto the back skins every day from the start of the test, respectively. 30 Days later from the start of the test, the back skins were excised. The amounts of collagen in the excised skins were assayed using hydroxyproline amount as an index.
The inhibition percentage of dermal fibrosis with bleomycin was caluculated according to the following equation.
Inhibition percentage of dermal fibrosis (%) [formula] J: Hydroxyproline amount in the untreated group K: Hydroxyproline amount in the group of bleomycin administration+application of the base alone
L: Hydroxyproline amount in the group of bleomycin administration+application of the drug

The mark [4] stands for this setting: read-out: Inhibition percentage of the extracellular matrices production, collagen staining method, TGF-β (+).
[5] abbreviates: read-out: Inhibition percentage of the extracellular matrices production, collagen staining method, TGF-β (-).
Where [6] appears, read: read-out: Inhibition percentage of the extracellular matrices production, dye staining method, TGF-β (+).
The mark [7] stands for this setting: read-out: Inhibition percentage of the extracellular matrices production, dye staining method, TGF-β (-).
[8] abbreviates: 1 × 10^-4 M, TGF-β 5 ng/ml, 5 days, read-out: Inhibition percentage of the extracellular matrices production, collagen staining method, TGF-β (+).
[9] abbreviates: 1 × 10^-4 M, unstimulated, 5 days, read-out: Inhibition percentage of the extracellular matrices production, collagen staining method, TGF-β (-).
[10] abbreviates: 1 × 10^-5 M, TGF-β 5 ng/ml, 5 days, read-out: Inhibition percentage of the extracellular matrices production, collagen staining method, TGF-β (+).
[11] abbreviates: 1 × 10^-5 M, unstimulated, 5 days, read-out: Inhibition percentage of the extracellular matrices production, collagen staining method, TGF-β (-).
[12] abbreviates: 1 × 10^-6 M, TGF-β 5 ng/ml, 5 days, read-out: Inhibition percentage of the extracellular matrices production, collagen staining method, TGF-β (+).
[13] abbreviates: 1 × 10^-6 M, unstimulated, 5 days, read-out: Inhibition percentage of the extracellular matrices production, collagen staining method, TGF-β (-).
The mark [14] stands for this setting: 1 × 10^-4 M, TGF-β 5 ng/ml, 5 days, read-out: Inhibition percentage of the extracellular matrices production, dye staining method, TGF-β (+).
The mark [15] stands for this setting: 1 × 10^-4 M, unstimulated, 5 days, read-out: Inhibition percentage of the extracellular matrices production, dye staining method, TGF-β (-).
[16] abbreviates: 1 × 10^-5 M, TGF-β 5 ng/ml, 5 days, read-out: Inhibition percentage of the extracellular matrices production, dye staining method, TGF-β (+).
Where [17] appears, read: 1 × 10^-5 M, unstimulated, 5 days, read-out: Inhibition percentage of the extracellular matrices production, dye staining method, TGF-β (-).
The mark [18] stands for this setting: 1 × 10^-6 M, TGF-β 5 ng/ml, 5 days, read-out: Inhibition percentage of the extracellular matrices production, dye staining method, TGF-β (+).
The mark [19] stands for this setting: 1 × 10^-6 M, unstimulated, 5 days, read-out: Inhibition percentage of the extracellular matrices production, dye staining method, TGF-β (-).

The values below come from patent publication US6068845A, “Inhibition of abnormal accumulation of extra-cellular matrices” (Institute for Advanced Skin Research Inc., priority 1996, dated 2000).

The term inhibition denotes the relative decrease from the control value, in per cent. With `c1ccc(-c2ccccn2)nc1` [2,2'-Dipyridyl, 2,2'-dipyridyl], the inhibition at 1 µM in assay [1] (setting [4]) was determined as 14%; in assay [1] (setting [5]) it was 10%; in assay [2] (setting [6]), 7%; in assay [2] (setting [7]), 5%. Also, the inhibition at 10 µM in assay [1] (setting [4]) stood at 30%; in assay [1] (setting [5]), 15%; in assay [2] (setting [6]) it was 7%; in assay [2] (setting [7]), 25%. The inhibition at 100 µM is 77% in assay [1] (setting [4]), 18% in assay [1] (setting [5]), 84% in assay [2] (setting [6]) and 44% in assay [2] (setting [7]).
`CC(C)OC(=O)C(C(=O)OC(C)C)=C1SC=CS1` [Malotilate, malotilate]: the “Hydroxyproline amount per weight of dried skin” value in assay [3] (5% applied to back skin daily) worked out at 1.66 ± 0.25 µg/mg; in assay [3] (10% applied to back skin daily), 1.47 ± 0.19 µg/mg. Further, the “Inhibition percentage of dermal fibrosis” value in assay [3] (5% applied to back skin daily) is on record as 52.2%; in assay [3] (10% applied to back skin daily), 80.6%. The inhibition at 100 µM in assay [1] (setting [8]) was determined as 98%; in assay [1] (setting [9]), 7%; in assay [2] (setting [14]), 92%; in assay [2] (setting [15]), 20%. For the same compound, the inhibition at 10 µM in assay [1] (setting [10]) was 68%; in assay [1] (setting [11]), 6%; in assay [2] (setting [16]), 53%; in assay [2] (setting [17]), 23%. Further, the inhibition at 1 µM was 20% in assay [1] (setting [12]), 9% in assay [1] (setting [13]), 18% in assay [2] (setting [18]) and 21% in assay [2] (setting [19]).
With `c1cnc2c(c1)ccc1cccnc12` [o-Phenanthroline, o-phenanthroline], the “Hydroxyproline amount per weight of dried skin” value in assay [3] (5% applied to back skin daily) was found to be 1.72 ± 0.16 µg/mg; in assay [3] (10% applied to back skin daily) it was 1.43 ± 0.10 µg/mg. Further, the results for the “Inhibition percentage of dermal fibrosis” value in assay [3] (5% applied to back skin daily) and in assay [3] (10% applied to back skin daily) were 43.3% and 86.6%, respectively. Moreover, the inhibition at 100 µM is 100% in assay [1] (setting [8]), 20% in assay [1] (setting [9]), 95% in assay [2] (setting [14]) and 0% in assay [2] (setting [15]). The inhibition at 10 µM in assay [1] (setting [10]) was found to be 90%; in assay [1] (setting [11]), 16%; in assay [2] (setting [16]) it was 86%; in assay [2] (setting [17]) it was 0%. Further, the inhibition at 1 µM was determined as 27% in assay [1] (setting [12]), 11% in assay [1] (setting [13]), 1% in assay [2] (setting [18]) and 7% in assay [2] (setting [19]).
